Assay results as given in ChEMBL document CHEMBL1144986, “Binding of beta-carbolines at 5-HT(2) serotonin receptors” (Bioorg Med Chem Lett, 2003).

Biological target: T1, 5-hydroxytryptamine receptor 2A (Rattus norvegicus, UniProt P14842)
Experiment: Binding affinity towards cloned rat 5-hydroxytryptamine 2A receptor from fundus tissue was determined using [3H]mesulergine as radioligand

T1 sequence (P14842 whole entry): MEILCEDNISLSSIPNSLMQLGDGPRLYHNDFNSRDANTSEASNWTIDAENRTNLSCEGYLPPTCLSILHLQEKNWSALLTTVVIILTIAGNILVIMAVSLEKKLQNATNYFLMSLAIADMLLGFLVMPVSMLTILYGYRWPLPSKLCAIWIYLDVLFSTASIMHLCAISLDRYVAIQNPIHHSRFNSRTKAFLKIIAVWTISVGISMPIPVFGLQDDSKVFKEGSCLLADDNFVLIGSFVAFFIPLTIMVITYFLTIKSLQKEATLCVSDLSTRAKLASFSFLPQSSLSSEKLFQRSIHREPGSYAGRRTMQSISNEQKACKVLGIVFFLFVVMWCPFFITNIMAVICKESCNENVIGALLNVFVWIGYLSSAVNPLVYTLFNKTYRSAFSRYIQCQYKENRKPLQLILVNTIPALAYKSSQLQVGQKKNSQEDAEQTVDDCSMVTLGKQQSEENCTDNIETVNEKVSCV

Compound	Ki [µM]
CC(C)Oc1cccc2[nH]c3c(c12)CCN=C3	1.41

Biological target: GABA-A receptor; anion channel
Experiment: Binding affinity towards GABA-A benzodiazepine receptor
Format: protein-complex assay, Rattus norvegicus

Compound	Ki [µM]
CC1=NCCc2c1[nH]c1ccccc21	> 10
COc1ccc2[nH]c3c(c2c1)CCN=C3C	> 10
COc1ccc2c(c1)[nH]c1c(C)nccc12 [HARMINE]	> 10

Biological target: Beta-1 adrenergic receptor (Homo sapiens, UniProt P08588)
Experiment: Binding affinity towards Beta-1A adrenergic receptor

Compound	Ki [µM]
COc1ccc2c3c([nH]c2c1)CNCC3	> 10
COc1ccc2c(c1)[nH]c1c(C)nccc12 [HARMINE]	> 10

Biological target: Sodium-dependent serotonin transporter (Homo sapiens, UniProt P31645)
Sequence (P31645 whole entry): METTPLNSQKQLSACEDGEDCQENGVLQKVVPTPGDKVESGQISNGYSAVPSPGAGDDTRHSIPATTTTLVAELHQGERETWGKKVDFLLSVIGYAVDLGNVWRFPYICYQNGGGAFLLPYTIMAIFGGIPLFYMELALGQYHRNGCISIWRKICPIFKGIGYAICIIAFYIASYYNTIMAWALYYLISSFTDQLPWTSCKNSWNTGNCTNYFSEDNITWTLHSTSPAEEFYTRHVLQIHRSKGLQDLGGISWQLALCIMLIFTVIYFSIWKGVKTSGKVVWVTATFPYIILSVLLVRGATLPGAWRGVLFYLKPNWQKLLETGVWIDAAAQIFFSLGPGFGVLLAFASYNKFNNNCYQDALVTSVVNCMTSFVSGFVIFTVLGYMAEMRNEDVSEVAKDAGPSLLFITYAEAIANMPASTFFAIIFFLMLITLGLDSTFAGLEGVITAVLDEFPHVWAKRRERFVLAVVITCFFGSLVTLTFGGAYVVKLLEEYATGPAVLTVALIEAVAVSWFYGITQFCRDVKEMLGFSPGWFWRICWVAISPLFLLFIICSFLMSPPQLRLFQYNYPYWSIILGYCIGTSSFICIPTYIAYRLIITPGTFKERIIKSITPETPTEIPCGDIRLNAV
Experiment: Binding affinity towards Serotonin transporter

Compound	Ki [µM]
CC1=NCCc2c1[nH]c1ccccc21	> 10
COc1ccc2[nH]c3c(c2c1)CCN=C3C	> 10
COc1ccc2c3c([nH]c2c1)CNCC3	> 10
COc1ccc2c(c1)[nH]c1c(C)nccc12 [HARMINE]	> 10

Biological target: Beta-2 adrenergic receptor (Homo sapiens, UniProt P07550)
Experiment: Binding affinity towards Beta-2A adrenergic receptor

Compound	Ki [µM]
COc1ccc2c3c([nH]c2c1)CNCC3	> 10
COc1ccc2c(c1)[nH]c1c(C)nccc12 [HARMINE]	> 10

Biological target: 5-hydroxytryptamine receptor 5A (Homo sapiens, UniProt P47898)
Sequence (P47898 whole entry): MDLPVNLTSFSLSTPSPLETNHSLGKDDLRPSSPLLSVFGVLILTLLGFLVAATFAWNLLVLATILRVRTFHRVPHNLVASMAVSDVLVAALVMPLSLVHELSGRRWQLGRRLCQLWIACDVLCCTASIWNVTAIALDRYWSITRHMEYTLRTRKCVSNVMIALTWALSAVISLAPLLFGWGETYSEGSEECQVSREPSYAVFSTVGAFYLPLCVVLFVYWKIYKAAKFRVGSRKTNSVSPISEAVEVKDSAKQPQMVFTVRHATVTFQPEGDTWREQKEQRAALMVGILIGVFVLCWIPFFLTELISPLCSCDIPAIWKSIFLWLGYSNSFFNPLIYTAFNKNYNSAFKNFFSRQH
Experiment: Binding affinity towards 5-HT5A receptor

Compound	Ki [µM]
CC1=NCCc2c1[nH]c1ccccc21	0.845
COc1ccc2[nH]c3c(c2c1)CCN=C3C	> 10
COc1ccc2c3c([nH]c2c1)CNCC3	> 10
COc1ccc2c(c1)[nH]c1c(C)nccc12 [HARMINE]	> 10

Biological target: 5-hydroxytryptamine receptor 6 (Homo sapiens, UniProt P50406)
Sequence (P50406 whole entry): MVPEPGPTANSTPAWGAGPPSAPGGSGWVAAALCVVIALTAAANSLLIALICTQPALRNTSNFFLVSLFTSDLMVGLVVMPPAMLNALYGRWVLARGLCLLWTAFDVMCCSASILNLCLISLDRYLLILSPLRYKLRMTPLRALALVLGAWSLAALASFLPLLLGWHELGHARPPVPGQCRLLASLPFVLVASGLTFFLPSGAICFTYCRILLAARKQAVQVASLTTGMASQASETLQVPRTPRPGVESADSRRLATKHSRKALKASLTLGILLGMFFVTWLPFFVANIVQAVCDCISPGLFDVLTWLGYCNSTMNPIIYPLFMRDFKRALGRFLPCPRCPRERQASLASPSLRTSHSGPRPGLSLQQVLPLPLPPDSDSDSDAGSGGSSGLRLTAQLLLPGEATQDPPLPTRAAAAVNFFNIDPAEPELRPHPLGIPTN
Experiment: Binding affinity towards human 5-hydroxytryptamine 6 receptor

Compound	Ki [µM]
CC1=NCCc2c1[nH]c1ccccc21	1.45
COc1ccc2[nH]c3c(c2c1)CCN=C3C	1.93
COc1ccc2c3c([nH]c2c1)CNCC3	> 10
COc1ccc2c(c1)[nH]c1c(C)nccc12 [HARMINE]	1.48

Biological target: Alpha-1B adrenergic receptor (Homo sapiens, UniProt P35368)
Experiment: Binding affinity towards Alpha-1B adrenergic receptor

Compound	Ki [µM]
COc1ccc2c3c([nH]c2c1)CNCC3	> 10
COc1ccc2c(c1)[nH]c1c(C)nccc12 [HARMINE]	> 10

Biological target: Alpha-2A adrenergic receptor (Homo sapiens, UniProt P08913)
Experiment: Binding affinity towards alpha-2A-Adrenergic receptor

Compound	Ki [µM]
COc1ccc2c3c([nH]c2c1)CNCC3	1.37
COc1ccc2c(c1)[nH]c1c(C)nccc12 [HARMINE]	2.54

Biological target: Sodium-dependent noradrenaline transporter (Homo sapiens, UniProt P23975)
Sequence (P23975 whole entry): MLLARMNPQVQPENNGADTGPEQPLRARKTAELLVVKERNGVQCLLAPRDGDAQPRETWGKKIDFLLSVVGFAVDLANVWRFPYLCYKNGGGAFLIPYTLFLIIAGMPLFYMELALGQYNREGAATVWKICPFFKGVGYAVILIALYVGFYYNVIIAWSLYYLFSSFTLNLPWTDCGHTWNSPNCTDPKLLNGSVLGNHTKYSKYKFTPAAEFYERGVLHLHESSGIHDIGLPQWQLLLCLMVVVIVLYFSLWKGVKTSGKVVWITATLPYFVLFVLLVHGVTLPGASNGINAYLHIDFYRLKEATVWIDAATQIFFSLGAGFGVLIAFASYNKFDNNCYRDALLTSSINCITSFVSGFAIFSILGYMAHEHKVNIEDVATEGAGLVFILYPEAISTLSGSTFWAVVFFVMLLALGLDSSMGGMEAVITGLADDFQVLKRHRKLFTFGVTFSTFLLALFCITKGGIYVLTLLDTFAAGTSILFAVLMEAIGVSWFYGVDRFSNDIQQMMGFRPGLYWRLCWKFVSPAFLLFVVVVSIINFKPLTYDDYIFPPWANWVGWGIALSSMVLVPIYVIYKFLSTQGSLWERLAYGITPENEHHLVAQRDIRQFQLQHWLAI
Experiment: Binding affinity towards NET

Compound	Ki [µM]
CC1=NCCc2c1[nH]c1ccccc21	> 10
COc1ccc2[nH]c3c(c2c1)CCN=C3C	> 4.1
COc1ccc2c(c1)[nH]c1c(C)nccc12 [HARMINE]	3.26

Biological target: T1, 5-hydroxytryptamine receptor 2A
Experiment: Binding affinity towards 5-hydroxytryptamine 2A receptor

Compound	Ki [µM]
CC1=NCCc2c1[nH]c1ccccc21	1.15
COc1ccc2[nH]c3c(c2c1)CCN=C3C	5.6
COc1ccc2c3c([nH]c2c1)CNCC3	4.62
COc1ccc2c(c1)[nH]c1c(C)nccc12 [HARMINE]	7.79

Biological target: 5-hydroxytryptamine receptor 7 (Homo sapiens, UniProt P34969)
Sequence (P34969 whole entry): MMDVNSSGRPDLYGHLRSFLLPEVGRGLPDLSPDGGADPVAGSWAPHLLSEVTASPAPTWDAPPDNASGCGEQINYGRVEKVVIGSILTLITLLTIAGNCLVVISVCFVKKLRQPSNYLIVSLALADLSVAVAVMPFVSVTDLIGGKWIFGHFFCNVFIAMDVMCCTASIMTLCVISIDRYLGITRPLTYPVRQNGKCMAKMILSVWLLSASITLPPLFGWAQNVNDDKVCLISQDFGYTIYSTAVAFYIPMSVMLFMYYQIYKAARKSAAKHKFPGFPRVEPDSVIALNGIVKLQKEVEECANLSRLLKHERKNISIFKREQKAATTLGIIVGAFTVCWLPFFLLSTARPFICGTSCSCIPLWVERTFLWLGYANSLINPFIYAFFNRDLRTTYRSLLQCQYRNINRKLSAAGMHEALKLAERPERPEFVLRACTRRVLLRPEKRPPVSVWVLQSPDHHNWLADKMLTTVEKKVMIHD
Experiment: Binding affinity towards 5-hydroxytryptamine 7 receptor

Compound	Ki [µM]
CC1=NCCc2c1[nH]c1ccccc21	0.28
COc1ccc2[nH]c3c(c2c1)CCN=C3C	2.96
COc1ccc2c3c([nH]c2c1)CNCC3	1.4
COc1ccc2c(c1)[nH]c1c(C)nccc12 [HARMINE]	5.5

Biological target: Alpha-2B adrenergic receptor (Homo sapiens, UniProt P18089)
Sequence (P18089 whole entry): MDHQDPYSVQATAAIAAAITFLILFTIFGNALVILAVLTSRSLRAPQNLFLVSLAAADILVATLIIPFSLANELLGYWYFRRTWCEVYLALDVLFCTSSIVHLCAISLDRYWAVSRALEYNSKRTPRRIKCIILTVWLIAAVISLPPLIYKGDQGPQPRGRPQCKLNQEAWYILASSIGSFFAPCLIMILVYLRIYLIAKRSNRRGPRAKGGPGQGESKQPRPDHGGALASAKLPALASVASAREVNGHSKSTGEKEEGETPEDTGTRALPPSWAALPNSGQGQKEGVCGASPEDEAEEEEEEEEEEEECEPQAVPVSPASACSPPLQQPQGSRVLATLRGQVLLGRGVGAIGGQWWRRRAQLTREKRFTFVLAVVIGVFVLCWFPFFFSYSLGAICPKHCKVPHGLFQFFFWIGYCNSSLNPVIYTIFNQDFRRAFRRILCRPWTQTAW
Experiment: Binding affinity towards Alpha-2B adrenergic receptor

Compound	Ki [µM]
COc1ccc2c3c([nH]c2c1)CNCC3	0.14
COc1ccc2c(c1)[nH]c1c(C)nccc12 [HARMINE]	1.13

Biological target: T2, 5-hydroxytryptamine receptor 2C (Homo sapiens, UniProt P28335)
T2 sequence (P28335 whole entry): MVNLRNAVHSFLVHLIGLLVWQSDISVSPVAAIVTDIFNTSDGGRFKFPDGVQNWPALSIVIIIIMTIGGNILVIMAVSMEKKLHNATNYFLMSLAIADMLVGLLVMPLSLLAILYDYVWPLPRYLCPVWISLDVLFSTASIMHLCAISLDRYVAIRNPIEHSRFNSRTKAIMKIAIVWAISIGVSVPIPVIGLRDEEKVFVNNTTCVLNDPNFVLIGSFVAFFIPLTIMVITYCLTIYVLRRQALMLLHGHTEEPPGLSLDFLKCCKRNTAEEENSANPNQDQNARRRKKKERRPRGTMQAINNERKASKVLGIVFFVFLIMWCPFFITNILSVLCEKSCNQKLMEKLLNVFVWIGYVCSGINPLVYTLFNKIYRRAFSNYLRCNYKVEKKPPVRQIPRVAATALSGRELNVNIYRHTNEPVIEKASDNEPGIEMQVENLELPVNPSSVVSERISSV
Experiment: Binding affinity towards 5-hydroxytryptamine 2C receptor

Compound	Ki [µM]
CC1=NCCc2c1[nH]c1ccccc21	1.86
COc1ccc2[nH]c3c(c2c1)CCN=C3C	0.924
COc1ccc2c3c([nH]c2c1)CNCC3	> 10
COc1ccc2c(c1)[nH]c1c(C)nccc12 [HARMINE]	9.34

Biological target: T3, 5-hydroxytryptamine receptor 1A (Homo sapiens, UniProt P08908)
T3 sequence (P08908 whole entry): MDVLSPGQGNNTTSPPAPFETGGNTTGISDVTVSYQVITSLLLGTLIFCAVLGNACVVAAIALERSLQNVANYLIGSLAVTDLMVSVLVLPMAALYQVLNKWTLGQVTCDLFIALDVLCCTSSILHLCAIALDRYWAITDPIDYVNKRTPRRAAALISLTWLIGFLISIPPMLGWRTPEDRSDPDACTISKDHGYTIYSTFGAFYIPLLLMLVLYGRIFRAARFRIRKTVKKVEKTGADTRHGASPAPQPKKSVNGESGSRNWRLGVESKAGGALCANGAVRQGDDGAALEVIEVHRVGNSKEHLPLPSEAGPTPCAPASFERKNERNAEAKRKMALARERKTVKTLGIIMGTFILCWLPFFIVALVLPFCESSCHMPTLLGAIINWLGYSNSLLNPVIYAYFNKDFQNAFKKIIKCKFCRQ
Experiment: Binding affinity towards 5-hydroxytryptamine 1A receptor

Compound	Ki [µM]
CC1=NCCc2c1[nH]c1ccccc21	> 1.67
COc1ccc2[nH]c3c(c2c1)CCN=C3C	> 10
COc1ccc2c3c([nH]c2c1)CNCC3	> 10
COc1ccc2c(c1)[nH]c1c(C)nccc12 [HARMINE]	> 10

Biological target: T1, 5-hydroxytryptamine receptor 2A
Experiment: Binding affinity for rat 5-hydroxytryptamine 2A receptor using [3H]DOB

Compound	Ki [µM]
COc1ccc2[nH]c3c(c2c1)CCNC3	1.4
COc1cccc2c3c([nH]c12)C=NCC3	2.55
COc1cccc2c3c([nH]c12)CNCC3	0.4
COc1ccc2c3c([nH]c2c1)CNCC3	2.2
Brc1cccc2[nH]c3c(c12)CCNC3	0.08
COc1cccc2[nH]c3c(c12)CCNC3	0.075
COc1cccc2[nH]c3c(c12)CCN=C3	0.5
Brc1cccc2c3c([nH]c12)C=NCC3	0.115

Biological target: Alpha-1A adrenergic receptor (Homo sapiens, UniProt P35348)
Experiment: Binding affinity towards Alpha-1A adrenergic receptor

Compound	Ki [µM]
COc1ccc2c3c([nH]c2c1)CNCC3	> 10
COc1ccc2c(c1)[nH]c1c(C)nccc12 [HARMINE]	> 10

Biological target: 5-hydroxytryptamine receptor 1D (Homo sapiens, UniProt P28221)
Sequence (P28221 whole entry): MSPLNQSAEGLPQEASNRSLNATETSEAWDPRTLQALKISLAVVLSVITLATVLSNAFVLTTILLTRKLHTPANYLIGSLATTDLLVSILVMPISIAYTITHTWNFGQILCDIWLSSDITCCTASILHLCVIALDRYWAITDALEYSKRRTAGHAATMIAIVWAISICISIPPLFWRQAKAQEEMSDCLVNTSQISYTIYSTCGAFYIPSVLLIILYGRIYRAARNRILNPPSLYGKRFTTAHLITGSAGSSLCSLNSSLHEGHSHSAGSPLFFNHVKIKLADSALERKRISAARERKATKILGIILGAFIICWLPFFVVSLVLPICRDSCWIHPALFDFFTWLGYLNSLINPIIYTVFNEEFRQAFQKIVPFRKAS
Experiment: Binding affinity towards 5-hydroxytryptamine 1D receptor

Compound	Ki [µM]
CC1=NCCc2c1[nH]c1ccccc21	> 10
COc1ccc2[nH]c3c(c2c1)CCN=C3C	> 10
COc1ccc2c3c([nH]c2c1)CNCC3	> 10
COc1ccc2c(c1)[nH]c1c(C)nccc12 [HARMINE]	> 10

Biological target: Dopamine receptor
Experiment: Binding affinity towards Dopamine receptor
Format: protein assay

Compound	Ki [µM]
CC1=NCCc2c1[nH]c1ccccc21	> 10
COc1ccc2[nH]c3c(c2c1)CCN=C3C	> 10
COc1ccc2c(c1)[nH]c1c(C)nccc12 [HARMINE]	> 10

Biological target: Muscarinic acetylcholine receptor
Experiment: Binding affinity towards Muscarinic acetylcholine receptor
Format: protein assay

Compound	Ki [µM]
CC1=NCCc2c1[nH]c1ccccc21	> 10
COc1ccc2[nH]c3c(c2c1)CCN=C3C	> 10
COc1ccc2c(c1)[nH]c1c(C)nccc12 [HARMINE]	> 10

Biological target: Alpha-2C adrenergic receptor (Homo sapiens, UniProt P18825)
Experiment: Binding affinity towards Alpha-2C adrenergic receptor

Compound	Ki [µM]
COc1ccc2c3c([nH]c2c1)CNCC3	1.74
COc1ccc2c(c1)[nH]c1c(C)nccc12 [HARMINE]	0.81

Biological target: T1, 5-hydroxytryptamine receptor 2A
Experiment: Binding affinity towards cloned rat 5-hydroxytryptamine 2A receptor by [3H]ketanserin displacement.

Compound	Ki [µM]
COc1ccc2[nH]c3c(c2c1)CCNC3	4.78
COc1cccc2c3c([nH]c12)C=NCC3	3.24
COc1cccc2c3c([nH]c12)CNCC3	0.64
COc1ccc2c3c([nH]c2c1)CNCC3	4.62
Brc1cccc2[nH]c3c(c12)CCNC3	0.18
COc1cccc2[nH]c3c(c12)CCNC3	0.13
COc1cccc2[nH]c3c(c12)CCN=C3	0.47
Brc1cccc2c3c([nH]c12)C=NCC3	0.11

Biological target: Serotonin 3 (5-HT3) receptor
Experiment: Binding affinity towards 5-HT3 receptor
Format: protein-complex assay

Compound	Ki [µM]
CC1=NCCc2c1[nH]c1ccccc21	> 10
COc1ccc2[nH]c3c(c2c1)CCN=C3C	> 10
COc1ccc2c3c([nH]c2c1)CNCC3	> 10
COc1ccc2c(c1)[nH]c1c(C)nccc12 [HARMINE]	> 10

Biological target: 5-hydroxytryptamine receptor 1B (Homo sapiens, UniProt P28222)
Sequence (P28222 whole entry): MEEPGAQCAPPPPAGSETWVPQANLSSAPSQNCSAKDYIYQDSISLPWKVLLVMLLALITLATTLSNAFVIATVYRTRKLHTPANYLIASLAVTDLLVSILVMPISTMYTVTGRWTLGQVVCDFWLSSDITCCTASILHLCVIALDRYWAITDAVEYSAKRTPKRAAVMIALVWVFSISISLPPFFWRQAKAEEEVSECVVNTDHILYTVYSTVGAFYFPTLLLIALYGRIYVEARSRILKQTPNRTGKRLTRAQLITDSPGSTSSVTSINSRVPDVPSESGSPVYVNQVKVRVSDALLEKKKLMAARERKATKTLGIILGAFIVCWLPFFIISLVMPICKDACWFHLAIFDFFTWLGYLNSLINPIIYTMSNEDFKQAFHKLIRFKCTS
Experiment: Binding affinity towards 5-hydroxytryptamine 1B receptor

Compound	Ki [µM]
CC1=NCCc2c1[nH]c1ccccc21	> 10
COc1ccc2[nH]c3c(c2c1)CCN=C3C	> 10
COc1ccc2c3c([nH]c2c1)CNCC3	> 10
COc1ccc2c(c1)[nH]c1c(C)nccc12 [HARMINE]	> 10

Biological target: Muscarinic acetylcholine receptor
Experiment: Binding affinity towards Muscarinic receptor
Format: protein assay

Compound	Ki [µM]
COc1ccc2c3c([nH]c2c1)CNCC3	> 10

Biological target: Sodium-dependent dopamine transporter (Bos taurus, UniProt P27922)
Sequence (P27922 whole entry): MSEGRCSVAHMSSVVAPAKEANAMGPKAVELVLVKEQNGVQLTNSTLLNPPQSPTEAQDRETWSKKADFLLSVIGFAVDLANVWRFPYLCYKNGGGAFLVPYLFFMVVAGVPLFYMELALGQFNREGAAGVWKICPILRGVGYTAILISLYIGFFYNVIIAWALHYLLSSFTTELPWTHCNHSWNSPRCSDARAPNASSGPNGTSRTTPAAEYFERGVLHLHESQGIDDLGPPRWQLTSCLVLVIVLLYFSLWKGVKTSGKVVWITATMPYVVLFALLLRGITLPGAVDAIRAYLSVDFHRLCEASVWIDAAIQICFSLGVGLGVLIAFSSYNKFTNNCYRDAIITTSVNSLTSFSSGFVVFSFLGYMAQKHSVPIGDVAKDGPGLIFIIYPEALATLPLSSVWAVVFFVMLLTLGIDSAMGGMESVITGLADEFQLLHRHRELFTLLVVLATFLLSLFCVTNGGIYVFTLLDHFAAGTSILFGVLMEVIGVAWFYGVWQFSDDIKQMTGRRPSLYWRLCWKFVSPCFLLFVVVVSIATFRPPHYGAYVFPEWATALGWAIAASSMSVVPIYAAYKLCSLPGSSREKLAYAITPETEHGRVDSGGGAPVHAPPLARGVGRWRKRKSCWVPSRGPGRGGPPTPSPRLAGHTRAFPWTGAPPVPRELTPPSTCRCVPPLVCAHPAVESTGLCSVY
Experiment: Binding affinity towards DAT (bovine)

Compound	Ki [µM]
CC1=NCCc2c1[nH]c1ccccc21	> 10
COc1ccc2[nH]c3c(c2c1)CCN=C3C	> 10
COc1ccc2c(c1)[nH]c1c(C)nccc12 [HARMINE]	> 10

Biological target: T4, 5-hydroxytryptamine receptor 2C (Rattus norvegicus, UniProt P08909)
T4 sequence (P08909 whole entry): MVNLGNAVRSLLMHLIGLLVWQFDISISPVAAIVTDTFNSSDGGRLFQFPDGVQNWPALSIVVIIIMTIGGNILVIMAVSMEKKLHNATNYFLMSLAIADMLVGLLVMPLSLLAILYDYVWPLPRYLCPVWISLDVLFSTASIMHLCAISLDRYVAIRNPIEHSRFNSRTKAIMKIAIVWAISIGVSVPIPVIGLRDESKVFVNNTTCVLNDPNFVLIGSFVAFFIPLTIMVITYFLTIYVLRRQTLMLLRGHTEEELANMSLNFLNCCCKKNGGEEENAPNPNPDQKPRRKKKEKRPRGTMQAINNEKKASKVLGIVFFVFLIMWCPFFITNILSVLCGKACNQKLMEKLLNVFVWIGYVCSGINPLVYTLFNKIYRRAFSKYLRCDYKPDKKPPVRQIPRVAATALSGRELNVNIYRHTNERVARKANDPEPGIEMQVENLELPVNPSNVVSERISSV
Experiment: Binding affinity towards cloned rat 5-hydroxytryptamine 2C receptor from fundus tissue by [3H]mesulergine displacement.

Compound	Ki [µM]
COc1ccc2[nH]c3c(c2c1)CCNC3	2.19
COc1cccc2c3c([nH]c12)C=NCC3	1.35
COc1cccc2c3c([nH]c12)CNCC3	1.27
COc1ccc2c3c([nH]c2c1)CNCC3	> 10
Brc1cccc2[nH]c3c(c12)CCNC3	0.13
COc1cccc2[nH]c3c(c12)CCNC3	0.14
COc1cccc2[nH]c3c(c12)CCN=C3	0.075
Brc1cccc2c3c([nH]c12)C=NCC3	0.14
